# Assay results published in publication PMC7243365 (Antiviral research, 2020).
# Tests used:
# [1] = tested on: his-tagged HA (H5) protein binding to A549 cells; design: species or system influenza A virus H5; details: for IC50: read-out: IC50 HA (H5) protein binding to A549 cells
# HIV/H5N1 pseudovirus [2] = assay type: cell-based, influenza A virus A/Goose/Qinghai/59/05 (H5N1); details: read-out: IC50 HIV/H5N1
# [3] = tested on: VN04Low (H5N1), A/Vietnam/1203/04; assay type: cell-based, influenza A virus H5N1
# A/HongKong/2/68 (H3N2) = assay type: cell-based, influenza A virus H3N2
# [4] = tested on: A/rhea/North Carolina/39482/93 (H7N1); assay type: cell-based, influenza A virus H7N1
# [5] = tested on: H1N1-GFP (A/Puerto Rico/8/34, NS1-GFP); assay type: cell-based, influenza A virus H1N1; details: for IC50: read-out: IC50 anti-H1N1
# [6] = tested on: A/Puerto Rico/8/34 (H1N1); assay type: cell-based, influenza A virus H1N1; details: read-out: IC50 H1N1 plaque reduction
# VN04Low (H5N1) = assay type: cell-based, influenza A virus H5N1; details: read-out: IC50 H5N1 plaque reduction
# HIV/H5N1 pseudovirus [7] = assay type: cell-based, influenza A virus H5N1; details: 10 µM
# [8] = tested on: H1N1-GFP (A/Puerto Rico/8/34, NS1-GFP); assay type: cell-based, influenza A virus H1N1
# [9] = tested on: HIV/H5N1 pseudovirus HA-mediated hemolysis; details: read-out: IC50 hemolysis inhibition; pH 5
# A549 cells = test: Cell viability assay; details: 48 h, CellTiter-Glo
# [10] = tested on: A/Puerto Rico/8/34 (H1N1); details: oral administration; ref van Dongen et al., 2019; cited from earlier work
smiles,measurement,setting,value
"CC(=O)N[C@H]1[C@H]([C@H](O)[C@H](O)CO)O[C@@](O[C@H]2[C@@H](O)[C@@H](CO)O[C@@H](O[C@H]3[C@H](O)[C@@H](O)C(O)O[C@@H]3CO)[C@@H]2O)(C(=O)O)C[C@@H]1O (stereo partly shown) [2,3-sialyllactose]",inhibition of HA (H5) protein binding at 9 mM,[1],inhibited protein binding completely
same,IC50,[1],1.8 mM
"CC(=O)N[C@H]1[C@H]([C@H](O)[C@H](O)CO)O[C@@](OC[C@H]2O[C@@H](O[C@H]3[C@H](O)[C@@H](O)C(O)O[C@@H]3CO)[C@H](O)[C@@H](O)[C@H]2O)(C(=O)O)C[C@@H]1O (stereo partly shown) [2,6-sialyllactose]",inhibition of HA (H5) protein binding at 27 mM,[1],47%
same,IC50,[1],29.5 mM
"CC(C)N1CCC(NC(=O)c2ccc(Cl)cc2Cl)CC1 [CBS1116, 2,4-dichloro-N-(1-isopropyl-4-piperidinyl) benzamide]",IC50,HIV/H5N1 pseudovirus [2],3.9 µM
same,inhibitory activity against VN04Low strain,[3],inhibitory activity against VN04Low strain in a concentration-dependent manner
same,inhibition against H3N2,A/HongKong/2/68 (H3N2),no inhibition
same,inhibition against H7N1,[4],no inhibition
same,H1N1-GFP infection at 5 μM,[5],completely blocked
same,concentration at which significant inhibition of H1N1 was observed,[5],5 µM
same,IC50,[5],400 nM
same,IC50,[6],400 nM
same,IC50,VN04Low (H5N1),13.8 µM
same,"inhibition of HIV/H5N1 infection, added at 0h",HIV/H5N1 pseudovirus [7],~ 99%
same,"inhibition of HIV/H5N1 infection, added at +1h",HIV/H5N1 pseudovirus [7],75%
same,"inhibition of HIV/H5N1 infection, added at +2h",HIV/H5N1 pseudovirus [7],41%
same,"inhibition of HIV/H5N1 infection, added at -1h",HIV/H5N1 pseudovirus [7],no inhibition
same,"cells infected by H1N1-GFP, added at 0h",[8],0%
same,"cells infected by H1N1-GFP, added at +1h",[8],17%
same,"cells infected by H1N1-GFP, added at +2h",[8],26%
same,"cells infected by H1N1-GFP, added at +3h",[8],33%
same,"cells infected by H1N1-GFP, added at -1h",[8],38%
same,HA protein still bound to the cells,[1],100%
same,cell toxicity to MDCK cells,MDCK cells,no cell toxicity
same,IC50,[9],6 µM
CC(C)N1CCC(NC(=O)c2c(Cl)cccc2Cl)CC1 [CBS1117],IC50,[5],70 nM
same,CC50,A549 cells,274 µM
CC(=O)Nc1ccc2oc(-c3ccnc(C(=O)N4CCN([C@H](c5ccccc5)c5nnn(C)n5)CC4)c3)nc2c1 [JNJ4796],protection of mice against H1N1 challenge,[10],protects mice
